Results taken from paper PMC7377239, “Cardiovascular Effects of Polychlorinated Biphenyls and Their Major Metabolites” (Environmental Health Perspectives, 2020).
Read-outs that look alike come from different tables or passages of the source.

Legend:
HUVECs = assay: High-content imaging cytotoxicity in HUVECs, 24 h; type: cell-based, human; settings: Homo sapiens, HUVEC, 24 h, HUVEC, 24 hr
Method in brief: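 HUVECs (passages 1–5) grown to monolayer over 3–5 d, then exposed 24 h at 37°C, 5% CO2; stained with Hoechst 33342, MitoTracker Orange and calcein AM and imaged at 10×. Readouts normalized to 0.5% DMSO vehicle, four-parameter logistic fit; POD at one-SD cutoff, 100μM assigned when no response.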

[1] = test system: iCell cardiomyocytes (human iPSC-derived cardiomyocytes); assay: High-content imaging of cytotoxicity and mitochondrial integrity in iPSC-CMs; type: cell-based; settings: Homo sapiens, Cardiomyocyte, cardiomyocytes (cm)
Method in brief: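 Human iPSC-derived cardiomyocytes were seeded on gelatin-coated 384-well plates at 5,000 cells per well and maintained for 12 d. Test chemicals were added as 10μL of 5× solutions to final concentrations of 0.01 to 100μM. Cells were stained with Hoechst 33342 and MitoTracker™ Orange, fixed in formaldehyde, and imaged by confocal high-content microscopy at 10× magnification.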

Compound: Oc1cccc(-c2ccc(Cl)cc2)c1 [3'-OH-PCB 3]
- minimal effective concentration (HUVECs; cyto, read-out: POD huvec.cyto.24hr): 1.1 µM
- minimal effective concentration (HUVECs; mito, read-out: POD huvec.mito.24hr): 0.97 µM
- minimal effective concentration (HUVECs; mitoint, read-out: POD huvec.mitoint.24hr): 41.4 µM
- minimal effective concentration (HUVECs; nma, read-out: POD huvec.nma.24hr): 0.04 µM
- minimal effective concentration (HUVECs; tc, read-out: POD huvec.tc.24hr): 1.1 µM
- minimal effective concentration ([1]; 1.5 h, cam, 90 min, read-out: POD cm.cam.90min): 16 µM
- minimal effective concentration ([1]; 1.5 h, mii, 90 min, read-out: POD cm.mii.90min): 35 µM
- minimal effective concentration ([1]; 1.5 h, mito, 90 min, read-out: POD cm.mito.90min): 15 µM
- minimal effective concentration ([1]; 1.5 h, tc, 90 min, read-out: POD cm.tc.90min): 14.8 µM
- minimal effective concentration ([1]; 24 h, cam, 24 hrs, read-out: POD cm.cam.24hrs): 14.1 µM
- minimal effective concentration ([1]; 24 h, mii, 24 hrs, read-out: POD cm.mii.24hrs): 23 µM
- minimal effective concentration ([1]; 24 h, mito, 24 hrs, read-out: POD cm.mito.24hrs): 14 µM
- minimal effective concentration ([1]; 24 h, tc, 24 hrs, read-out: POD cm.tc.24hrs): 15.6 µM
